Measured values as given in the NIST ThermoML archive (doi:10.1016/j.fluid.2009.09.019).
± gives the expanded uncertainty stated by the source.

Tests used:
[1] = refractive index (Na D-line) (dimensionless); settings: 293.2 K; 101.33 kPa; Liquid; Standard Abbe refractometry
[2] = 293.2 K; 101.33 kPa; Liquid; Vibrating tube method

Row | refractive index [1] | mass density [2] [kg/m3] | Structure (SMILES)
1 | 1.4263 ± 0.0005 | 778.12 ± 0.61 | C1CCCCC1 [cyclohexane]
2 | 1.375 ± 0.0004 | 660.1 ± 0.25 | CCCCCC [hexane]

Second part, the compound before the results:

Row | Structure (SMILES) | refractive index [1] | mass density [2] [kg/m3]
3 | Cc1ccccc1 [toluene] | 1.4967 ± 0.0004 | 
4 | CCCCCCC [heptane] | 1.3873 ± 0.0004 | 684.1 ± 0.25
5 | O=C1CCCO1 [γ-butyrolactone] | 1.4344 ± 0.0005 | 1128.7 ± 1.1
